According to patent EP2405274A1, “Monitoring anticoagulant therapy and identifying reversible direct factor Xa inhibitors” (Good biomarker Sciences B.V., priority 2010, dated 2012):

Legend:
Type in all cases: biochemical
[1] = system: pooled human citrated plasma; experiment: PT clotting assay with Innovin in presence of RVV-V; conditions: Figure 2
Protocol: (§1) The experiments here below were performed with pooled human citrated plasma which was made from a minimum of individual contributions of 6 apparently healthy volunteers. Blood was collected ( 9 vol blood/ 1 volume 0.11 M citrate) in tubes and mixed directly after withdrawal. The Blood was cooled by submersion in ice water and centrifuged in a cooled, swing-out centrifuge for at least 20 minutes at 2000 x g. Subsequently, plasma was carefully separated from the cells and collected in an intermediate , cooled plastic tube. The collected plasma was mixed and centrifuged similarly after which platelet-poor-plasma was collected, aliquoted and after snap-freezing stored at -60 °C or below.
(§2) Different PT assays were used using PT assays commercially available as Simplastin excel S (BioMerieux), Innovin (Dade Behring), Neoplastin CI plus (Stago), Recombiplastin (Instrumentation Laboratories) and Thromborel S (Dade Behring). In each case The reagent consisted of Tissue factor, lipid and CaCl2. […] The AMAX recorded blood clotting by reduction in speed of a turning rod (mechanical detection). […]
(§3) For spiking experiments with rivaroxaban (Xarelto, from Bayer), the plasma sample was spiked with rivaroxaban at different concentrations between […], and the clotting times were again recorded using the different PT reagents. […]

[2] = system: pooled human citrated plasma; experiment: Prothrombin time (PT) clotting assay with PT fibrinogen
Protocol: as §1
(§4) Different PT assays were used using PT assays commercially available as Simplastin excel S (BioMerieux), Innovin (Dade Behring), Neoplastin CI plus (Stago), Recombiplastin (Instrumentation Laboratories) and Thromborel S (Dade Behring). In each case The reagent consisted of Tissue factor, lipid and CaCl2. Tests were performed in a clotting analyser (AMAX Destiny, Kordia Lifesciences, Leiden, NL). In each case a cuvette was filled with 100 µl plasma and incubated for 1 minute at 37 °C. Pre-warmed PT reagent was added (200 µl) and recording of clotting was started. The AMAX recorded blood clotting by reduction in speed of a turning rod (mechanical detection).
(§5) For spiking experiments with rivaroxaban (Xarelto, from Bayer), the plasma sample was spiked with rivaroxaban at different concentrations between […], and the clotting times were again recorded using the different PT reagents. The results are plotted in Figure 1.
(§6) Example 1a was repeated with PT clotting assays Thromboplastin S (Biopool, through Trinity),PT fibrinogen (Instrumentation Laboratories), PT fibrinogen recombinant (Instrumentation Laboratories), Thromboplastin C plus ( Siemens) and Simplastin Excel (Biomerieux).

[3] = system: pooled human citrated plasma; experiment: Prothrombin time (PT) clotting assay with Simplastin excel S; parameters: Rivaroxaban-prolonged PT / Ratio range: dose or concentration left out as unconfirmed
Protocol: as §1, §4, §5

[4] = system: pooled human citrated plasma; experiment: PT clotting assay with Simplastin Excel S in presence of RVV-V; conditions: RVV-V added prior to the clotting experiment, Figure 2
Protocol: as §1, §2, §3

[5] = system: pooled human citrated plasma; experiment: Prothrombin time (PT) clotting assay with Thromborel S
Protocol: as §1, §4, §5

[6] = system: pooled human citrated plasma; experiment: Prothrombin time (PT) clotting assay with Simplastin Excel
Protocol: as §1, §4, §5, §6

[7] = system: pooled human citrated plasma; experiment: Prothrombin time (PT) clotting assay with PT fibrinogen recombinant
Protocol: as §1, §4, §5, §6

[8] = system: pooled human citrated plasma; experiment: Prothrombin time (PT) clotting assay with Thromboplastin S
Protocol: as §1
Different PT assays were used using PT assays commercially available as Simplastin excel S (BioMerieux), Innovin (Dade Behring), Neoplastin CI plus (Stago), Recombiplastin (Instrumentation Laboratories) and Thromborel S (Dade Behring). In each case The reagent consisted of Tissue factor, lipid and CaCl2. […] The AMAX recorded blood clotting by reduction in speed of a turning rod (mechanical detection).
as §3

[9] = system: pooled human citrated plasma; experiment: Prothrombin time (PT) clotting assay with Recombiplastin
Protocol: as §1, §4, §5

[10] = system: pooled human citrated plasma; experiment: Prothrombin time (PT) clotting assay with Thromboplastin C plus
Protocol: as §1, §4, §5, §6

[11] = system: pooled human citrated plasma; experiment: Prothrombin time (PT) clotting assay with Innovin
Protocol: as §1, §4, §5

[12] = system: pooled human citrated plasma; experiment: Prothrombin time (PT) clotting assay with Neoplastin CI plus
Protocol: as §1, §4, §5

[13] = 200 ng/ml rivaroxaban spiked in plasma
[14] = 600 ng/ml rivaroxaban spiked in plasma
[15] = PT ratio compared to reference value ("0"), up to 600 ng/ml rivaroxaban

Question: With `O=C(NC[C@H]1CN(c2ccc(N3CCOCC3=O)cc2)C(=O)O1)c1ccc(Cl)s1` [rivaroxaban, Rivaroxaban] as the molecule, how does the “Change in PT for rivaroxaban” value [1] read?
Answer: Its value is “no significant change in PT”.

Question: What about the Prothrombin time [2, 13] of the same molecule?
Answer: The Prothrombin time was 38.5 s.

Question: What about the Prothrombin time [2, 14] of the same molecule?
Answer: Its Prothrombin time is 62.7 s.

Question: And the Ratio range [2, 15]?
Answer: The Ratio range was 1.0-2.8.

Question: What about the “Sensitivity of PT assay for rivaroxaban” value ([3]; Simplastin Excel S and/or Triniclot Excel S, within the therapeutic range (ratio window 2 - 5)) of the same molecule?
Answer: The value was “high sensitivity”.

Question: And the “Rivaroxaban-prolonged PT” value ([3]; Simplastin Excel S, without RVV-V, 200 -)?
Answer: The value was 80 s.

Question: What about the Prothrombin time ([3]; Simplastin excel S, 200 µg/ml rivaroxaban spiked in plasma) of the same molecule?
Answer: The Prothrombin time was 41.0 s.

Question: And the Ratio range ([3]; Simplastin excel S, PT ratio compared to reference value ("0"), up)?
Answer: The Ratio range was 1.0-5.0.

Question: And the Prothrombin time ([3]; Simplastin excel S, spiked in plasma)?
Answer: The Prothrombin time was 80.8 s.

Question: What about the “Effect of RVV-V on prolonged PT” value [4] of the same molecule?
Answer: Its value is “completely vanished”.

Question: What about the Prothrombin time [5, 13] of the same molecule?
Answer: The Prothrombin time was 21.1 s.

Question: What about the Prothrombin time [5, 14] of the same molecule?
Answer: Its Prothrombin time is 26.7 s.

Question: And the Ratio range [5, 15]?
Answer: Its Ratio range is 1.0-1.7.

Question: And the Prothrombin time [6, 13]?
Answer: The Prothrombin time was 40.0 s.

Question: And the Prothrombin time [6, 14]?
Answer: The Prothrombin time was 63.1 s.

Question: And the Ratio range [6, 15]?
Answer: Its Ratio range is 1.0-3.1.

Question: And the Prothrombin time [7, 13]?
Answer: The Prothrombin time was 32.9 s.

Question: What about the Prothrombin time [7, 14] of the same molecule?
Answer: The Prothrombin time was 45.4 s.

Question: What about the Ratio range [7, 15] of the same molecule?
Answer: Its Ratio range is 1.0-1.9.

Question: What about the Prothrombin time [8, 14] of the same molecule?
Answer: Its Prothrombin time is 51.6 s.

Question: What about the Ratio range [8, 15] of the same molecule?
Answer: Its Ratio range is 1.0-2.4.

Question: And the Prothrombin time [9, 13]?
Answer: The Prothrombin time was 16.8 s.

Question: What about the Prothrombin time [9, 14] of the same molecule?
Answer: The Prothrombin time was 26.2 s.

Question: And the Ratio range [9, 15]?
Answer: Its Ratio range is 1.0-2.5.

Question: And the Prothrombin time [10, 13]?
Answer: Its Prothrombin time is 44.3 s.

Question: And the Prothrombin time [10, 14]?
Answer: Its Prothrombin time is 73.5 s.

Question: And the Ratio range [10, 15]?
Answer: The Ratio range was 1.0-3.1.

Question: What about the Prothrombin time [11, 13] of the same molecule?
Answer: The Prothrombin time was 12.0 s.

Question: What about the Prothrombin time [11, 14] of the same molecule?
Answer: Its Prothrombin time is 17.1 s.

Question: What about the Ratio range [11, 15] of the same molecule?
Answer: The Ratio range was 1.0- 1.8.

Question: And the “Change in PT for rivaroxaban” value ([11]; without RVV-V, Figure 2)?
Answer: The value was “no significant change in PT”.

Question: What about the Prothrombin time [12, 13] of the same molecule?
Answer: The Prothrombin time was 20.0 s.

Question: What about the Prothrombin time [12, 14] of the same molecule?
Answer: Its Prothrombin time is 35.0 s.

Question: And the Ratio range [12, 15]?
Answer: The Ratio range was 1.0-2.6.
